# Results taken from PMC10830684, “Effect of Oregon grape root extracts on P-glycoprotein mediated transport in in vitro cell lines” (Journal of Pharmacy & Pharmaceutical Sciences, 2024).
# Legend:
# Caco-2 cells = assay: Transepithelial transport of berberine and berbamine across Caco-2 cells; assay type: in vitro ADME, human; conditions: 100 µM; Caco-2 cells
# Method: Transport of ^3H-CsA and ^3H-digoxin (0.5 µM and 1.0 µCi), MDR1 substrates, were performed using transport buffer consisting of HBSS with 10 mM HEPES and 25 mM D-glucose at a pH of 6.8 for the apical (A) compartment and 7.4 for the basolateral (B) compartment. Experiments were performed at 37°C, 5% CO2, and 95% relative humidity. Cells in the Transwell® inserts were washed 3 times with a transport buffer and allowed to equilibrate for 30 min prior to the addition of test compounds. […] To evaluate the efflux mechanism involved with berberine and berbamine, 100 µM of berberine and berbamine were placed in the donor chamber and 100 µL samples were collected in the receiver chamber at 0, 0.5, 1.0, 1.5, 2.0, 2.5, and 3.0 h and analyzed by HPLC. Each experiment was performed in duplicate and repeated for each condition tested. For experiments performed in “non-sink” conditions, 100 µL aliquots were taken from the donor and receiver chambers at the beginning and from the receiver chamber at 0.5, 1.0, 1.5, 2.0, 2.5, and 3.0 h. An equal volume of 100 µL was replaced in the chamber at each sample time point. “Non-sink” conditions were performed when less than 10% of compound is transported across cells during the transport experiment such that a concentration gradient was always present. For the “sink” condition experiments, the entire receiver volume was replaced at each time interval and a 100 µL aliquot was taken from the receiver volume for scintillation counting. A 100 µL sample was taken from the donor chamber at 3 h in order to calculate the mass balance of radioactivity to determine if adsorption to the cell culture transport apparatus had occurred. Each sample was placed in 0.9 mL of scintillation fluor (Cytoscint ES, ICN, Cosa Mesa, CA, USA) and read on a Beckman LS 6500 (Palo Alto, CA, USA) scintillation counter for ^3H activity. For berberine and berbamine analysis, 100 µL aliquot was assayed by HPLC.
# (§1) The apparent permeability (Papp) was calculated using the following equation [40]: Papp=dQ/dt×1/A×C0
# Where A is the surface area of the monolayer (4.71 cm^2) and C0 is the initial concentration of radiolabeled probe substrate in the donor compartment. dQ/dt is the slope of the steady-state rate constant. The efflux ratio was determined by dividing the Papp in the B to A direction by the Papp in the A to B direction: Efflux ratio=PappB to A/PappA to B
# A Waters 2690 separations module with a Model 996 photodiode array detector with the Millennium 32 Chromatograph Manager version 3.0 software (Waters Corporation, Milford, MA, USA) was used for HPLC analysis. […] All the standards and samples were filtered (0.2 µm) prior to injection. Ten µL was injected onto a 250 × 4.6 mm i.d., […], Zorbax Eclipse X DB-C18 Column (Agilent Technologies, Palo Alto, CA, USA) with a 3.9 × 20 mm i.d. Symmetry® C18 guard column, with an isocratic mobile phase of 32:68 acetonitrile:buffer. The buffer consisted of 30 mM ammonium acetate and 14 mM TEA and was adjusted to pH 4.85 with acetic acid. A flow rate of 1 mL/min and UV absorption at 254 nm was used for analysis. The retention time of berberine and berbamine was 7.84 min and 3.03 min, respectively. The cumulative amount of transport was determined using the corresponding peak area for berberine or berbamine. The cumulative amount of berberine or berbamine transported across the cell membrane was evaluated as a functionof time. The Papp was calculated by the following equation: […]
# MDCKII-MDR1 cells = assay: MTT cytotoxicity assay in MDCKII-MDR1 cells; assay type: cell-based, Canine; conditions: 4 hours exposure
# From the text: We initiated cytotoxicity experiments with the Caco-2, MDCKII-MDR1 and MDCKII-wild type cells on Day 7 (Caco-2) and Day 4 (MDCKII-MDR1 and MDCKII-wild type) after the initial plating of the cells at 2.5 × 10^3 cells/well in 48-well plates (Becton Dickinson, Franklin Lakes, NJ, USA). See details of preparation for the cytotoxicity experiments in Supplementary Material.
# We initiated cytotoxicity experiments with the Caco-2, MDCKII-MDR1 and MDCKII-wild type cells on Day 7 (Caco-2) and Day 4 (MDCKII-MDR1 and MDCKII-wild type) after the initial plating of the cells at 2.5x10^3 cells/well in 48-well plates (Becton Dickinson, Franklin Lakes, NJ, USA). Stock solutions of 10 mM berberine or berbamine were prepared by dissolving the compounds in DMSO (berberine) or distilled water (berbamine). […] The final concentration of DMSO was 0.003% (v/v), 0.03% (v/v), 0.3% (v/v), 1% (v/v), 1.5% (v/v), and 3% (v/v) DMSO/culture medium for 0.3 μM, 3 μM, 30 μM, 100 μM, ,150 μM, and 300 μM, respectively. The final concentration of ethanol was 0.15% (v/v) ethanol/culture medium. Ketoconazole (75 µM) was used as a positive control and no treatment (medium alone) was used as a negative control for each experiment.
# The LDH enzymatic activities were assayed using the method of Mitchell et al.(1). […] Enzyme leakage into the medium was expressed as the percentage of total cellular LDH. The MTT (3-(4,5-dimethythiazole-2yl)-2,5-diphenyl tetrazolium bromide) reduction assay was done according to Mosmann (2). This assay was conducted immediately with the same cells used in the LDH study. The results were expressed as the percentage of negative controls.
# P-gp = test system: P-gp; design: method as in PMID 12434406; conditions: Caco-2 cells; seven day pretreatment; 30 µM; cited from earlier work
# [1] = molecular target: T1, P-glycoprotein (MDCKII-MDR1 cells) (Homo sapiens, UniProt P08183); assay: Effect on 3H-CsA and 3H-digoxin transport in MDCKII-MDR1 cells; conditions: for Papp (B to A) of 3H-CsA: 0.5 µM 3H-CsA; for Papp (B to A) of 3H-digoxin: 0.5 µM 3H-digoxin
# MDCKII wild-type cells = assay: Effect on 3H-CsA and 3H-digoxin transport in MDCKII wild-type cells; conditions: MDCKII-WT; for Papp (B to A) of 3H-CsA: 0.5 µM 3H-CsA; for Papp (B to A) of 3H-digoxin: 0.5 µM 3H-digoxin
# [2] = molecular target: T1, P-glycoprotein (MDCKII-MDR1 cells); assay: Transepithelial transport of berberine and berbamine across MDCKII-MDR1 cells; assay type: in vitro ADME; design: expressed in transfected cells; host or cells: MDCKII-MDR1 (Madin-Darby canine kidney II cells overexpressing MDR1); conditions: 100 µM
# Method: Transport of ^3H-CsA and ^3H-digoxin (0.5 µM and 1.0 µCi), MDR1 substrates, were performed using transport buffer consisting of HBSS with 10 mM HEPES and 25 mM D-glucose at a pH of 6.8 for the apical (A) compartment and 7.4 for the basolateral (B) compartment. Experiments were performed at 37°C, 5% CO2, and 95% relative humidity. Cells in the Transwell® inserts were washed 3 times with a transport buffer and allowed to equilibrate for 30 min prior to the addition of test compounds. […] To evaluate the efflux mechanism involved with berberine and berbamine, 100 µM of berberine and berbamine were placed in the donor chamber and 100 µL samples were collected in the receiver chamber at 0, 0.5, 1.0, 1.5, 2.0, 2.5, and 3.0 h and analyzed by HPLC. Each experiment was performed in duplicate and repeated for each condition tested. For experiments performed in “non-sink” conditions, 100 µL aliquots were taken from the donor and receiver chambers at the beginning and from the receiver chamber at 0.5, 1.0, 1.5, 2.0, 2.5, and 3.0 h. An equal volume of 100 µL was replaced in the chamber at each sample time point. […] A 100 µL sample was taken from the donor chamber at 3 h in order to calculate the mass balance of radioactivity to determine if adsorption to the cell culture transport apparatus had occurred. Each sample was placed in 0.9 mL of scintillation fluor (Cytoscint ES, ICN, Cosa Mesa, CA, USA) and read on a Beckman LS 6500 (Palo Alto, CA, USA) scintillation counter for ^3H activity. […]
# as §1
# Where A is the surface area of the monolayer (4.71 cm^2) and C0 is the initial concentration of radiolabeled probe substrate in the donor compartment. dQ/dt is the slope of the steady-state rate constant. The efflux ratio was determined by dividing the Papp in the B to A direction by the Papp in the A to B direction: Efflux ratio=PappB to A/PappA to B […]
# T1 sequence (P08183 whole entry): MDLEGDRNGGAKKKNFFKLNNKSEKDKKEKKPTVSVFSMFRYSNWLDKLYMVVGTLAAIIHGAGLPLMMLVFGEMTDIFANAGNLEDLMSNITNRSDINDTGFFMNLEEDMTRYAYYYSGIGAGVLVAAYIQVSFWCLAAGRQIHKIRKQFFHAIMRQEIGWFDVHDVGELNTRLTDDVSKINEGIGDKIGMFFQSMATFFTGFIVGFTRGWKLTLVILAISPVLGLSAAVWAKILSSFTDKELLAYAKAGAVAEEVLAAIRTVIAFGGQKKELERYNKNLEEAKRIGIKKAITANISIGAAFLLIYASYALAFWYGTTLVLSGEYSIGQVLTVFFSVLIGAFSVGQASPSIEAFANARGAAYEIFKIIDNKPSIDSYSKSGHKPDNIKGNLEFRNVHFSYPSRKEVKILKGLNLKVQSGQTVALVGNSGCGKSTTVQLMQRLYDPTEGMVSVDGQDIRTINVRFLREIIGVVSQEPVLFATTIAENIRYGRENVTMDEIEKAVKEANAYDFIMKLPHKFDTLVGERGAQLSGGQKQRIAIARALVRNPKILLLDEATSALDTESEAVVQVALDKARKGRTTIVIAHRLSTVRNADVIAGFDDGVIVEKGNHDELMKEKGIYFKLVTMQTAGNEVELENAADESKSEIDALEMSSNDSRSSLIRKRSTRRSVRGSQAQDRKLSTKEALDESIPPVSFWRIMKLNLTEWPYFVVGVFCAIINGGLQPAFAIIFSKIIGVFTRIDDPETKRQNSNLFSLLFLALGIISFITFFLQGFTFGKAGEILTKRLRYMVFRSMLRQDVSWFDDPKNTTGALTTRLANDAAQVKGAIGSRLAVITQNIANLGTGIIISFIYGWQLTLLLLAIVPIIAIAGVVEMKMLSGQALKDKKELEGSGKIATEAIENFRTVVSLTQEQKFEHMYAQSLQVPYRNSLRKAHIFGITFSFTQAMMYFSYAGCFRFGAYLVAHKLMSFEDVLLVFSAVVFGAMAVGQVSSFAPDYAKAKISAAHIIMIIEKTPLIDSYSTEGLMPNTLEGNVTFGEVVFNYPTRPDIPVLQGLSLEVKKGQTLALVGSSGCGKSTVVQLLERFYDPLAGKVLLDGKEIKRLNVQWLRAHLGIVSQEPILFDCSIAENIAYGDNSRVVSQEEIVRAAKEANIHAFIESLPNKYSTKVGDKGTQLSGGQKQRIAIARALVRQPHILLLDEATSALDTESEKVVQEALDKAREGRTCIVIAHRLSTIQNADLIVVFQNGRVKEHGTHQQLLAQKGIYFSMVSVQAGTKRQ
smiles,measurement,setting,value
"COc1ccc2cc3[n+](cc2c1OC)CCc1cc2c(cc1-3)OCO2.[Cl-] [Berberine, Berberine chloride]",Papp A to B direction,Caco-2 cells,2.35 ×10⁻⁶ cm/s
same,Papp B to A direction,Caco-2 cells,10.4 ×10⁻⁶ cm/s
same,fold increase of Papp B to A compared with A to B,Caco-2 cells,~4 fold
same,transport in the A to B direction,Caco-2 cells,0.18 nmol/min
same,transport in the B to A direction,Caco-2 cells,1.45 nmol/min
same,MTT assay,MDCKII-MDR1 cells; 0.03 µM,□ (%MTT reduction is not significantly decreased compared with the negative control)
same,MTT assay,MDCKII-MDR1 cells; 3.0 µM,□ (%MTT reduction is not significantly decreased compared with the negative control)
same,MTT assay,MDCKII-MDR1 cells; 100 µM,□ (%MTT reduction is not significantly decreased compared with the negative control)
same,MTT assay,MDCKII-MDR1 cells; 150 µM,□ (%MTT reduction is not significantly decreased compared with the negative control)
same,MTT assay,MDCKII-MDR1 cells; 300 µM,□ (%MTT reduction is not significantly decreased compared with the negative control)
same,increase of the efflux of daunomycin,P-gp,1.4 fold
same,Papp (B to A) of 3H-CsA,[1]; 10 µM compound,5.34 ± 1.56 x 10^−6 cm/s
same,Papp (B to A) of 3H-digoxin,[1]; 10 µM compound,1.56 ± 0.43 x 10^−6 cm/s
same,Papp (B to A) of 3H-CsA,[1]; 30 µM compound,5.17 ± 0.92 x 10^−6 cm/s
same,Papp (B to A) of 3H-digoxin,[1]; 30 µM compound,1.57 ± 0.81 x 10^−6 cm/s
same,Papp (B to A) of 3H-CsA,MDCKII wild-type cells; 10 µM compound,4.07 ± 0.56 x 10^−6 cm/s
same,Papp (B to A) of 3H-digoxin,MDCKII wild-type cells; 10 µM compound,7.55 ± 0.46 x 10^−6 cm/s
same,Papp (B to A) of 3H-CsA,MDCKII wild-type cells; 30 µM compound,4.34 ± 0.29 x 10^−6 cm/s
same,Papp (B to A) of 3H-digoxin,MDCKII wild-type cells; 30 µM compound,6.95 ± 0.71 x 10^−6 cm/s
same,Papp A to B direction,[2],1.3 ×10⁻⁶ cm/s
same,Papp B to A direction,[2],15.6 ×10⁻⁶ cm/s
same,fold increase of Papp B to A compared with A to B,[2],approximately 12 fold
